Literature values in publication PMC4220649 (Blood Cancer Journal, 2014).

Tested on: patients with lymphoma
Details: IV bortezomib in lymphoma; cited from earlier work

## CC(C)C[C@H](NC(=O)[C@H](Cc1ccccc1)NC(=O)c1cnccn1)B(O)O [bortezomib]
  Grade 3 PN rates: 3–13%
  Overall rates of PN: 17–55%
